Data from patent publication US7183295B2, “PPAR-activating compound and pharmaceutical composition comprising the compound” (Kowa Co., Ltd., priority 2003, dated 2007).

Columns and labels:
Assay type in all cases: cell-based
[1] = biological target: T1, human PPARα (166–467aa) ligand binding domain (Homo sapiens, UniProt Q07869); test: PPAR transfection (Gal4-LBD luciferase reporter) assay, hPPARα; settings: transfected COS-7 cells, 16 hours, luciferase activity; read-out: hPPAR; EC50 α (agonist activity)
T1 construct: human PPARα (166–467aa); expressed in transfected cells; host or cells: COS-7
T1 sequence (Q07869 166-467): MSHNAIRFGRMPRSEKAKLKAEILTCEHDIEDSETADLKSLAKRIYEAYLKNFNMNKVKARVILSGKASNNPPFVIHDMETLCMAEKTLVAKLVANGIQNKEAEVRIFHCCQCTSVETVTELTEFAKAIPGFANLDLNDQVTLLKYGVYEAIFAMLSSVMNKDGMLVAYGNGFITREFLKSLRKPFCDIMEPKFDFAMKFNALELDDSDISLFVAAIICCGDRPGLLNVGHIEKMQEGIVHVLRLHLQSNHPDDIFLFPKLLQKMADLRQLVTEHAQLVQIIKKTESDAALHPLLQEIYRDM
Procedure: (§1) COS-7 cells, which is African green monkey kidney cell line, were used for all transfection assays. Cells were cultured in DMEM medium supplemented with 10% fetal bovine serum, glutamic acid, and an antibiotic under humidified 5% CO2 atmosphere.
(§2) Cells were transfected by lipofectamine reagent with a mixture containing expression plasmid, firefly luciferase reporter plasmid. And a β-galactosidase expression plasmid used as an internal control for transfection efficiency.
(§3) Transiently transfected cells were incubated with DMEM with 0.2% FCS with or without compound. And after 16 hours, luciferase activity and β-galactosidase activity of cell lysate were measured.
(§4) Each compound was dissolved in and diluted with dimethyl sulfoxide (DMSO), and the DMSO concentration of the DMEM medium (containing 0.2% serum) was adjusted to 0.1% upon treatment of cells.

[2] = biological target: T2, human PPARγ (182–505aa) ligand binding domain (Homo sapiens, UniProt P37231); test: PPAR transfection (Gal4-LBD luciferase reporter) assay, hPPARγ; settings: transfected COS-7 cells, 16 hours, luciferase activity; read-out: hPPAR; EC50 γ (agonist activity)
T2 construct: γ(182–505aa); expressed in transfected cells; host or cells: COS-7
T2 sequence (P37231 182-505): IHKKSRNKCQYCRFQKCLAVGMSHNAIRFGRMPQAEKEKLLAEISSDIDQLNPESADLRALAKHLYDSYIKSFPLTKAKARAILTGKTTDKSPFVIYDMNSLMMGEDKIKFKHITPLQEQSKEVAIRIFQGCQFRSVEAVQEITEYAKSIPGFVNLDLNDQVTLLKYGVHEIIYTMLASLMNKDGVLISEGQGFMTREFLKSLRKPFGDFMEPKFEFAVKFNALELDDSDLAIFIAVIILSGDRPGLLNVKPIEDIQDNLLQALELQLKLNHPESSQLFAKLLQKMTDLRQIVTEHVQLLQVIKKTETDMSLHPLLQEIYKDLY
Procedure: as §1, §2, §3, §4

[3] = biological target: T3, human PPARδ (137–441aa) ligand binding domain (Homo sapiens, UniProt Q03181); test: PPAR transfection (Gal4-LBD luciferase reporter) assay, hPPARδ; settings: transfected COS-7 cells, 16 hours, luciferase activity; read-out: hPPAR; EC50 δ (agonist activity)
T3 construct: δ (137–441aa); expressed in transfected cells; host or cells: COS-7
T3 sequence (Q03181 137-441): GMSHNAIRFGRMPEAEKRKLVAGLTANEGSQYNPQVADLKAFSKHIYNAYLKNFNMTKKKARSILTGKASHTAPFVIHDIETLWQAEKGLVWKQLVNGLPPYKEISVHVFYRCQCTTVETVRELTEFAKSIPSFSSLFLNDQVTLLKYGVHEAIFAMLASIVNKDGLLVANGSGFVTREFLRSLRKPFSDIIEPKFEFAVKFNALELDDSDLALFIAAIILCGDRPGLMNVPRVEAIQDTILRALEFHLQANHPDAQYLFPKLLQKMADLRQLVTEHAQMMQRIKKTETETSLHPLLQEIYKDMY
Procedure: as §1, §2, §3, §4

Question: What does the source list for `COc1ccc(OCCCN(Cc2cccc(OC(C)(C)C(=O)O)c2)c2nc3ccccc3o2)cc1` [Example 15, 2-[3-[[N-(Benzoxazol-2-yl)-N-3-(4-methoxyphenoxy)propyl]aminomethyl]phenoxy]-2-methylpropionic acid]?
Answer: EC50 [1]: 0.05 µM; EC50 [2]: > 100 µM; EC50 [3]: 1.5 µM

Question: `CC(Oc1cccc(CN(CCOc2ccccc2)c2nc3ccccc3o2)c1)C(=O)O` (stereo not drawn) [Example 18, 2-[3-[[N-(Benzoxazol-2-yl)-N-2-phenoxyethyl]aminomethyl]phenoxy]propionic acid] was tested. Which EC50 [1] did it give?
Answer: The EC50 was 0.07 µM.

Question: And the EC50 [2]?
Answer: The EC50 was 1.2 µM.

Question: What about the EC50 [3] of the same molecule?
Answer: The EC50 was over 100 µM.

Question: With `CC(Oc1cccc(CN(CCCOc2cccc(N(C)C)c2)c2nc3ccccc3o2)c1)C(=O)O` (stereo not drawn) [Example 19, 2-[3-[[N-(Benzoxazol-2-yl)-N-3-(3-dimethylaminophenoxy)propyl]aminomethyl]phenoxy]propionic acid] as the molecule, how does the EC50 [1] read?
Answer: Its EC50 is 0.0001 µM.

Question: What about the EC50 [2] of the same molecule?
Answer: The EC50 was 1.2 µM.

Question: And the EC50 [3]?
Answer: The EC50 was over 100 µM.

Question: With `COc1ccc(OCCCN(Cc2cccc(OC(C)C(=O)O)c2)c2nc3ccccc3o2)cc1` (stereo not drawn) [Example 20, 2-[3-[[N-(Benzoxazol-2-yl)-N-3-(4-methoxyphenoxy)propyl]aminomethyl]phenoxy]propionic acid] as the molecule, how does the EC50 [1] read?
Answer: The EC50 was 0.01 µM.

Question: And the EC50 [2]?
Answer: Its EC50 is 1.2 µM.

Question: What about the EC50 [3] of the same molecule?
Answer: The EC50 was 2 µM.

Question: Which EC50 [1] does the source give for `CCC(Oc1cccc(CN(CCOc2ccccc2)c2nc3ccccc3o2)c1)C(=O)O` (stereo not drawn) [Example 24, 2-[3-[[N-(Benzoxazol-2-yl)-N-2-phenoxyethyl]aminomethyl]phenoxy]butyric acid] here?
Answer: The EC50 was 0.03 µM.

Question: And the EC50 [2]?
Answer: Its EC50 is 1.4 µM.

Question: What about the EC50 [3] of the same molecule?
Answer: Its EC50 is 2.3 µM.

Question: How did the EC50 [1] turn out when `CC(Oc1cccc(CCN(CCOc2ccccc2)c2nc3ccccc3o2)c1)C(=O)O` (stereo not drawn) [Example 31, 2-[3-[2-[N-(Benzoxazol-2-yl)-N-2-phenoxyethyl]aminoethyl]phenoxy]propionic acid] was run?
Answer: Its EC50 is 0.09 µM.

Question: And the EC50 [2]?
Answer: The EC50 was over 100 µM.

Question: And the EC50 [3]?
Answer: Its EC50 is over 50 µM.

Question: For `CC(Oc1cccc(CCN(CCOc2ccc(F)cc2)c2nc3ccccc3o2)c1)C(=O)O` (stereo not drawn) [Example 34, 2-[3-[2-[N-(Benzoxazol-2-yl)-N-2-(4-fluorophenoxy)ethyl]aminoethyl]phenoxy]propionic acid], which EC50 [1] is on record?
Answer: Its EC50 is 0.06 µM.

Question: What about the EC50 [2] of the same molecule?
Answer: Its EC50 is 1.2 µM.

Question: What about the EC50 [3] of the same molecule?
Answer: Its EC50 is 1.6 µM.

Question: Which EC50 [1] does the source give for `CC(Oc1cccc(CCN(CCOc2ccc(F)cc2)c2nc3cc(F)ccc3o2)c1)C(=O)O` (stereo not drawn) [Example 35, 2-[3-[2-[N-(5-Fluorobenzoxazol-2-yl)-N-2-(4-fluorophenoxy)ethyl]aminoethyl]phenoxy]propionic acid] here?
Answer: Its EC50 is 0.02 µM.

Question: And the EC50 [2]?
Answer: The EC50 was 1.2 µM.

Question: What about the EC50 [3] of the same molecule?
Answer: The EC50 was 1.6 µM.

Question: For `CC(Oc1cccc(CCN(CCOc2ccc(F)cc2)c2nc3cc(Cl)ccc3o2)c1)C(=O)O` (stereo not drawn) [Example 36, 2-[3-[2-[N-(5-Chlorobenzoxazol-2-yl)-N-2-(4-fluorophenoxy)ethyl]aminoethyl]phenoxy]propionic acid], which EC50 [1] is on record?
Answer: Its EC50 is 0.05 µM.

Question: What about the EC50 [2] of the same molecule?
Answer: The EC50 was 2.1 µM.

Question: And the EC50 [3]?
Answer: The EC50 was 1.6 µM.

Question: Which EC50 [1] does the source give for `COc1ccc2oc(N(CCOc3ccc(F)cc3)CCc3cccc(OC(C)C(=O)O)c3)nc2c1` (stereo not drawn) [Example 37, 2-[3-[2-[N-2-(4-Fluorphenoxy)ethyl-N-(5-methoxybenzoxazol-2-yl)]aminoethyl]phenoxy]propionic acid] here?
Answer: Its EC50 is 0.07 µM.

Question: What about the EC50 [2] of the same molecule?
Answer: Its EC50 is 4.2 µM.

Question: What about the EC50 [3] of the same molecule?
Answer: The EC50 was 1.5 µM.

Question: Which results are given for `CCC(Oc1cccc(CCN(CCCOc2ccccc2)c2nc3ccccc3o2)c1)C(=O)O` (stereo not drawn) [Example 38, 2-[3-[2-[N-(Benzoxazol-2-yl)-N-3-phenoxypropyl]aminoethyl]phenoxy]butyric acid]?
Answer: EC50 [1]: 0.05 µM; EC50 [2]: 1.5 µM; EC50 [3]: 1.4 µM

Question: For `CCC(Oc1cccc(CCN(CCCOc2ccccc2)c2nc3cc(F)ccc3o2)c1)C(=O)O` (stereo not drawn) [Example 39, 2-[3-[2-[N-(5-Fluorobenzoxazol-2-yl)-N-3-phenoxypropyl]aminoethyl]phenoxy]butyric acid], which EC50 [1] is on record?
Answer: The EC50 was 0.08 µM.

Question: And the EC50 [2]?
Answer: Its EC50 is 9.1 µM.

Question: And the EC50 [3]?
Answer: The EC50 was 1.6 µM.

Question: With `CCC(Oc1cccc(CCN(CCOc2ccccc2)c2nc3ccccc3o2)c1)C(=O)O` (stereo not drawn) [Example 41, 2-[3-[2-[N-(Benzoxazol-2-yl)-N-2-phenoxyethyl]aminoethyl]phenoxy]butyric acid] as the molecule, how does the EC50 [1] read?
Answer: The EC50 was 0.04 µM.

Question: What about the EC50 [2] of the same molecule?
Answer: Its EC50 is 2 µM.

Question: What about the EC50 [3] of the same molecule?
Answer: The EC50 was over 50 µM.
